In patent US5349127A, “Expression of herbicide metabolizing cytochromes P450” (priority 1992, dated 1994):

Experiments:
[1] = test system: S. lividans pCAO200SU2-FeS-A#11; assay: Sulfonylurea metabolism by washed cell suspension (Examples 11-12); format: in vitro ADME, Streptomyces lividans; conditions: substrate 10001
Protocol: S. lividans transformed with pCAO200SU2-FeS-A#11 and S. lividans transformed with pCAO200 were cultured for 36 hours in 400 ml of YEME broth at 30° C. S. griseolus PH2001 (mutant without SU1) was cultured in 400 ml of sporulation broth at 30° C. Nine hours before harvesting the cells, the S. griseolus PH2001 culture was divided into two 200 ml cultures. Both received 100 ml of fresh sporulation broth and one received 36 mg of 10001 to induce cytochrome P450SU2. The cells were prepared as described above in Example 6 and the concentrations of the sulfonylurea compound 10001 and its metabolites 10002 and 10003 were determined.

[2] = test system: Tomato seedlings (Lycopersicon esculentum cv. Pixie); assay: Tomato transplants in herbicide-treated soil after bacterial pretreatments (Example 18); format: in vivo; conditions: for Shoot Fresh Weight (mean of five plants): 22 days; for Shoot fresh weight in treatment C versus the other treatments: 32, 64 and 125 g ai/ha of 10001 or 16 and 32 g ai/ha of 10010
Protocol: One liter cultures of S. griseolus ATCC 11796, S. lividans pCAO200, S. lividans pCAO200-#9-SU1-FeS-B or S. lividans pCAO200-#12-SU1 were grown in YEME medium (sporulation broth for the S. griseolus culture) at 30° C. until the cultures were in late log phase of growth and the absorbance of each culture in a spectrophotometer at a wavelength of 600 nm was between 1.0 and 1.3. Tomato seedlings (Lycopersicon esculentum cv. "Pixie") were seeded directly into soiless media, Oasis Wedges® (Smithers-Oasis, Kent, Ohio), fertilized with 500 ppm Peter's® fertilizer (20:19:18); and 300 ppm of iron was added weekly. As the tomato plants develop, roots ramify through the Oasis Wedges®. The tomato plants were transplanted to pots when they were 4 inches tall as follows.
Five inch standard round pots (without holes) were filled with Sassafras sandy loam (ph 6.7, 0.8% OM) and a single Oasis cube and then treated preemergence with either Classic® (10001) 25 DF (16, 32, 64, 125 and 250 grams active ingredient/hectare [g ai/ha]) or Oust® (10010) 75 DF at rates of 4, 8, 16, 32 and 64 g ai/ha), both herbicides available from E. I. du Pont de Nemours and Company, Wilmington, Del. The oasis cube was then removed and replaced by a transplant tomato dipped in either the cultures described above of S. griseolus ATCC 11796 (treatment A), S. lividans pCAO200 (treatment B), S. lividans pCAO200-#9-SU1-FeS-B (treatment C), S. lividans pCAO200-#12-SU1 (treatment D) or into water (treatment E). Five transplants were tested for each treatment at each dosage rate. The pots were placed on a greenhouse bench for 22 days and watered twice daily, after which shoot fresh weights of treatments were determined. Roots of these treatments and controls were examined too. Plants, soil and pots treated with bacterial cultures were double bagged and disposed by incineration.

[3] = test system: S. ambofaciens PH4002; assay: Metabolism of 10001 by untransformed strain (Example 14); format: in vitro ADME, Streptomyces ambofaciens; conditions: substrate 10001 120 ug/ml
[4] = test system: S. lividans C37; assay: Metabolism of 10001 in growing culture, HPLC of supernatant (Example 4); format: in vitro ADME, Streptomyces lividans; conditions: 0.12 mg/ml 10001 in culture
Protocol: Herbicides and their metabolites are measured by HPLC as described by Romesser et al., BBRC 140: 650-659 (1986), herein incorporated by reference, except that 0.1% H3 PO4 is used in both solvents. Chromatographic identity and quantitation of the herbicides and their resulting metabolites is determined by comparing them chromatographically with authentic standard compounds. Identity of the resulting metabolites is also confirmed by UV spectroscopy.
Separate cultures (50 ml) inoculated with S. lividans C37, S. lividans transformed with pCAO400 or S. lividans transformed with pCAO401 in sporulation broth containing 0.12 mg/ml of 10001 were grown with shaking at 30° C. Aliquots (1.5 ml) of each culture were removed at 24, 32, 48 and 56 hours after inoculation and the supernatant of each aliquot was analyzed by HPLC for its concentration of 10001 and its metabolites 10002 or 10003.

[5] = 16 g ai/ha, Pretreatment A (Streptomyces griseolus ATCC11796)
[6] = 16 g ai/ha, Pretreatment B (Streptomyces lividans pCAO200)
[7] = 16 g ai/ha, Pretreatment C (S. lividans pCAO200#9SU1-FeS-B)
[8] = 16 g ai/ha, Pretreatment D (S. lividans pCAO200#12SU1)
[9] = 16 g ai/ha, Pretreatment E (water)
[10] = 32 g ai/ha, Pretreatment A (Streptomyces griseolus ATCC11796)
[11] = 32 g ai/ha, Pretreatment B (Streptomyces lividans pCAO200)
[12] = 32 g ai/ha, Pretreatment C (S. lividans pCAO200#9SU1-FeS-B)
[13] = 32 g ai/ha, Pretreatment D (S. lividans pCAO200#12SU1)
[14] = 32 g ai/ha, Pretreatment E (water)
[15] = 64 g ai/ha, Pretreatment A (Streptomyces griseolus ATCC11796)
[16] = 64 g ai/ha, Pretreatment B (Streptomyces lividans pCAO200)
[17] = 64 g ai/ha, Pretreatment C (S. lividans pCAO200#9SU1-FeS-B)
[18] = 64 g ai/ha, Pretreatment D (S. lividans pCAO200#12SU1)
[19] = 64 g ai/ha, Pretreatment E (water)

| SMILES | concentration in supernatant ([1]; 2 h) | concentration in supernatant ([1]; 4 h) | concentration in supernatant ([1]; 6 h) | Shoot Fresh Weight (mean of five plants) [2, 5] | Shoot Fresh Weight (mean of five plants) [2, 6] | Shoot Fresh Weight (mean of five plants) [2, 7] | Shoot Fresh Weight (mean of five plants) [2, 8] | Shoot Fresh Weight (mean of five plants) [2, 9] | Shoot fresh weight in treatment C versus the other treatments [2] | Shoot Fresh Weight (mean of five plants) [2, 10] | Shoot Fresh Weight (mean of five plants) [2, 11] | Shoot Fresh Weight (mean of five plants) [2, 12] | Shoot Fresh Weight (mean of five plants) [2, 13] | Shoot Fresh Weight (mean of five plants) [2, 14] | Shoot Fresh Weight (mean of five plants) [2, 15] | Shoot Fresh Weight (mean of five plants) [2, 16] | Shoot Fresh Weight (mean of five plants) [2, 17] | Shoot Fresh Weight (mean of five plants) [2, 18] | Shoot Fresh Weight (mean of five plants) [2, 19] | concentration in supernatant ([3]; 1.0 h) | other results |
| --- | --- | --- | --- | --- | --- | --- | --- | --- | --- | --- | --- | --- | --- | --- | --- | --- | --- | --- | --- | --- | --- |
| CCOC(=O)c1ccccc1S(=O)(=O)NC(=O)Nc1nc(O)cc(Cl)n1 [compound 10002, N-[(4-chloro-6-hydroxy-pyrimidin-2-yl)aminocarbonyl]-2-ethoxycarbonylbenzenesulfonamide] | 7 µM | 12 µM | 15 µM |  |  |  |  |  |  |  |  |  |  |  |  |  |  |  |  |  |  |
| CCOC(=O)c1ccccc1S(=O)(=O)NC(=O)Nc1nc(Cl)cc(OC)n1 [compound 10001, N-[(4-chloro-6-methoxy-pyrimidin-2-yl)aminocarbonyl]-2-ethoxycarbonylbenzenesulfonamide] | 279 µM | 273 µM | 251 µM | 0.88 grams | 0.67 grams | 1.63 grams | 0.62 grams | 1.67 grams | 2-3 times greater | 0.74 grams | 0.47 grams | 1.62 grams | 0.82 grams | 1.07 grams | 0.21 grams | 0.53 grams | 1.24 grams | 0.47 grams | 0.46 grams | 406 µM | Shoot Fresh Weight (mean of five plants) ([2]; 125 g ai/ha, Pretreatment A (Streptomyces griseolus ATCC11796)): 0.49 grams; Shoot Fresh Weight (mean of five plants) ([2]; 125 g ai/ha, Pretreatment B (Streptomyces lividans pCAO200)): 0.38 grams; Shoot Fresh Weight (mean of five plants) ([2]; 125 g ai/ha, Pretreatment C (S. lividans pCAO200#9SU1-FeS-B)): 1.01 grams; Shoot Fresh Weight (mean of five plants) ([2]; 125 g ai/ha, Pretreatment D (S. lividans pCAO200#12SU1)): 0.35 grams; Shoot Fresh Weight (mean of five plants) ([2]; 125 g ai/ha, Pretreatment E (water)): 0.23 grams; Shoot Fresh Weight (mean of five plants) ([2]; 250 g ai/ha, Pretreatment A (Streptomyces griseolus ATCC11796)): 0.44 grams; Shoot Fresh Weight (mean of five plants) ([2]; 250 g ai/ha, Pretreatment B (Streptomyces lividans pCAO200)): 0.25 grams; Shoot Fresh Weight (mean of five plants) ([2]; 250 g ai/ha, Pretreatment C (S. lividans pCAO200#9SU1-FeS-B)): 0.55 grams; Shoot Fresh Weight (mean of five plants) ([2]; 250 g ai/ha, Pretreatment D (S. lividans pCAO200#12SU1)): 0.26 grams; Shoot Fresh Weight (mean of five plants) ([2]; 250 g ai/ha, Pretreatment E (water)): 0.21 grams; concentration in supernatant ([3]; 4.0 h): 412 µM; concentration in supernatant ([4]; 0 h): 325 µM; concentration in supernatant ([4]; 24 h): 320 µM; concentration in supernatant ([4]; 32 h): 295 µM; concentration in supernatant ([4]; 48 h): 281 µM; concentration in supernatant ([4]; 56 h): 280 µM |
| COc1cc(Cl)nc(NC(=O)NS(=O)(=O)c2ccccc2C(=O)O)n1 [compound 10003, N-[(4-chloro-6-methoxy-pyrimidin-2-yol)aminocarbonyl]-2-carboxybenzenesulfonamide] | 1 µM | 2 µM | 3 µM |  |  |  |  |  |  |  |  |  |  |  |  |  |  |  |  | 0 µM | concentration in supernatant ([3]; 4.0 h): 0 µM; concentration in supernatant ([4]; 0 h): 0 µM; concentration in supernatant ([4]; 24 h): 0 µM; concentration in supernatant ([4]; 32 h): 0 µM; concentration in supernatant ([4]; 48 h): 3 µM; concentration in supernatant ([4]; 56 h): 3 µM |
| COC(=O)c1ccccc1S(=O)(=O)NC(=O)Nc1nc(C)cc(C)n1 [compound 10010, N-[(4,6-dimethylpyrimidin-2-yl)aminocarbonyl]-2-methoxycarbonylbenzenesulfonamide] |  |  |  | 0.32 grams | 0.65 grams | 0.98 grams | 0.56 grams | 0.39 grams | 2-3 times greater | 0.33 grams | 0.42 grams | 1.01 grams | 0.62 grams | 0.28 grams | 0.30 grams | 0.39 grams | 0.46 grams | 0.29 grams | 0.34 grams |  | Shoot Fresh Weight (mean of five plants) ([2]; 4 g ai/ha, Pretreatment A (Streptomyces griseolus ATCC11796)): 1.16 grams; Shoot Fresh Weight (mean of five plants) ([2]; 4 g ai/ha, Pretreatment B (Streptomyces lividans pCAO200)): 0.73 grams; Shoot Fresh Weight (mean of five plants) ([2]; 4 g ai/ha, Pretreatment C (S. lividans pCAO200#9SU1-FeS-B)): 0.88 grams; Shoot Fresh Weight (mean of five plants) ([2]; 4 g ai/ha, Pretreatment D (S. lividans pCAO200#12SU1)): 0.88 grams; Shoot Fresh Weight (mean of five plants) ([2]; 4 g ai/ha, Pretreatment E (water)): 2.00 grams; Shoot Fresh Weight (mean of five plants) ([2]; 8 g ai/ha, Pretreatment A (Streptomyces griseolus ATCC11796)): 0.58 grams; Shoot Fresh Weight (mean of five plants) ([2]; 8 g ai/ha, Pretreatment B (Streptomyces lividans pCAO200)): 0.69 grams; Shoot Fresh Weight (mean of five plants) ([2]; 8 g ai/ha, Pretreatment C (S. lividans pCAO200#9SU1-FeS-B)): 1.02 grams; Shoot Fresh Weight (mean of five plants) ([2]; 8 g ai/ha, Pretreatment D (S. lividans pCAO200#12SU1)): 0.75 grams; Shoot Fresh Weight (mean of five plants) ([2]; 8 g ai/ha, Pretreatment E (water)): 0.65 grams |
